These results are taken from US8497371B2, “Pipemidic acid derivative autotaxin inhibitors” (University of Memphis Research Foundation, priority 2009, dated 2013).

Holding throughout (format): biochemical
One assay concerns the target ATX (Homo sapiens, UniProt Q13822). The assay is described as follows: ATX inhibition assay with FS-3 substrate. Further details: conditioned serum-free medium (CCM) from MDA-MB-435 cells as the source of ATX; endogenous in cells; host or cells: MDA-MB-435 cells (about 10x concentrated serum-free conditioned medium). The following applies: for % Response at 10 μM (FS-3): 10 μM compound, FS-3 hydrolysis normalized to vehicle control (low = strong inhibition), mean ± S.D.; for single dose response comparison by aromatic substituent and position: Table 2, same values as % Response at 10 μM.

The target in a further assay is T1, human NPP6 (Homo sapiens, UniProt Q6UWR7).
T1 construct: transfected with human NPP6ex^51 or human NPP7ex expression plasmids; made in house; host or cells: HEK293 cells, transient transfection, pcDNA3.1(+); unconcentrated conditioned medium (CM)
T1 sequence (Q6UWR7 23-419 limits assumed): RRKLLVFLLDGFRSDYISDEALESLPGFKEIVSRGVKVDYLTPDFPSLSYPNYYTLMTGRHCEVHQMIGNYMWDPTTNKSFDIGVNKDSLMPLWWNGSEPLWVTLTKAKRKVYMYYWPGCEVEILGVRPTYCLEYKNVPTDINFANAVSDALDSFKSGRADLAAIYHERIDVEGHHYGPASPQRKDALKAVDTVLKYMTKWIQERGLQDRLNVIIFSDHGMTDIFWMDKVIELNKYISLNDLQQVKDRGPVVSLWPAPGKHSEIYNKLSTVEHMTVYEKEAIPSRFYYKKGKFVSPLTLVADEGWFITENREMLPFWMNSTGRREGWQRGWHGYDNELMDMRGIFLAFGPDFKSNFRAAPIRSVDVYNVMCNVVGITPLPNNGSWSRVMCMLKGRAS
The assay is described as follows: Determination of NPP6 inhibition (pNPPC substrate). The note with it: 10 μM inhibitor. The procedure:
(§1) Inhibitor selectivity was assayed using p-nitrophenylphosphoryl-choline (pNPPC) (Sigma-Aldrich, St. Louis, Mo.) as substrate for NPP6 and NPP7. The final volume (60 μL) included 20 μL (CM, NPP6 or CCM, NPP7, 20 μL inhibitor (10 μM including 1% DMSO) in assay buffer, and 20 μL pNPPC (10 mM, NPP6 or 1 NPP7) in assay buffer. NPP6 assay buffer contained 500 mM NaCl, 0.05% Triton X-100, 100 mM Tris-HCl (pH 9.0), whereas NPP7 assay buffer was comprised of 50 mM Tris HCl, pH 8.5, 150 mM NaCl, and 10 mM taurocholic acid. However, unlike the published methods, EDTA was not added to the NPP7 assay buffer. All assays were performed in 96-well, half area plates (Corning Inc., Lowell, Mass.) at 37° C. with data collected at 2 minute intervals using a Synergy2 absorbance plate reader (BioTek, Winooski, Vt.). Results are shown at the one hour time point, when all absorbance changes as a function of time were linear. Readings were normalized to vehicle control after subtraction of absorbance in the absence of CM or CCM. Data are shown as the mean±S.D. of at least three wells. All experiments were repeated twice and representative results are shown.
(§2) Assays were performed with CM or CCM from HEK293 cells transiently transfected with NPP6 and 7 expression plasmids, respectively. HEK293 cells were seeded in Dulbecco's modified Eagle's medium (DMEM) containing 10% fetal bovine serum, 100 U/ml penicillin, 100 μg/ml streptomycin (Hyclone, Logan, Utah), and 2 mM L-glutamine. HEK293 cells were grown overnight at 37° C. under 5% CO2 to 80% confluence. The cells were then transfected with human NPP6ex^51 or human NPP7ex expression plasmids in the pcDNA3.1(+) mammalian vector in the presence of Polyfect Transfection Reagent (Hyclone, Logan, Utah). Six hours after transfection, the culture medium was changed to serum free DMEM containing L-glutamine and cells were incubated for 48 hours. Expressed protein was collected (NPP6 and NPP7) and concentrated ˜10×(NPP7) using 10 kDa molecular weight cutoff filters (Millipore, Beverly, Mass.) in an Amicon pressure cell (Millipore, Beverly, Mass.).

The next assay addresses T2, human NPP7 (Homo sapiens, UniProt Q6UWV6).
T2 construct: transfected with human NPP6ex^51 or human NPP7ex expression plasmids; made in house; host or cells: HEK293 cells, transient transfection, pcDNA3.1(+); conditioned medium concentrated about 10x (CCM)
T2 sequence (Q6UWV6 22-433 limits assumed): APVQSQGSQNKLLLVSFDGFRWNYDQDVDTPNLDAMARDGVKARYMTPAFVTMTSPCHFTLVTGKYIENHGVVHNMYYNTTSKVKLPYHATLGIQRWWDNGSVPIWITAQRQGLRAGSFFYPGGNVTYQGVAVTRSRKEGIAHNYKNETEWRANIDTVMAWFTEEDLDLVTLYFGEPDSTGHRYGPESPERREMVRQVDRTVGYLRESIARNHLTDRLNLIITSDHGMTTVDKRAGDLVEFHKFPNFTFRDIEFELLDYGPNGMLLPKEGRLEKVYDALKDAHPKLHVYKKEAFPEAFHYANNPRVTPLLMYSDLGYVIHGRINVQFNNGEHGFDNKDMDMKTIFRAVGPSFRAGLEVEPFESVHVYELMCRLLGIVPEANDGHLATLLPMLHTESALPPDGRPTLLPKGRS
The experiment in a line: Determination of NPP7 inhibition (pNPPC substrate). The note with it: 10 μM inhibitor. The procedure: as §1, §2

Protocol for ATX: ATX inhibition was assayed using the substrate FS-3 (Echelon Biosciences, Inc., Salt Lake City, Utah, USA). The FS-3 assay used ˜10 times concentrated conditioned serum-free medium (CCM) from MDA-MB-435 cells as the source of ATX, while CCM comprised one-third of the total volume.
All assays were performed in 96-well plates with data read at 1 minute intervals by a Synergy2 system (BioTek, Winooski, Vt.). […] Results are shown at one hour, at which point all fluorescence and absorbance changes as a function of time were linear. All readings were normalized to vehicle control after subtraction of fluorescence in the absence of CCM. Data are shown as the mean±S.D. of at least three wells. All experiments were repeated at least twice and results are shown.

Turning to “2-(4-{[(4-dimethylaminonapthylphenyl)amino]carbonothioyl}-1-piperazinyl)-8-ethyl-5-oxo-5,8-dihydropyrido[2,3-d]pyrimidine-6-carboxylic acid [Compound 2]”, the “% Response at 10 μM (FS-3)” value on ATX is recorded as 59.9 ± 1.5%.
`CCn1cc(C(=O)O)c(=O)c2cnc(N3CCN(C(=S)Nc4ccc(C(=O)O)cc4)CC3)nc21` [Compound 4, 2-(4-{[(4-carboxylphenyl)amino]carbonothioyl}-1-piperazinyl)-8-ethyl-5-oxo-5,8-dihydropyrido[2,3-d]pyrimidine-6-carboxylic acid]: the “% Response at 10 μM (FS-3)” value on ATX is reported as 72.7 ± 2.2%.
On the same count and under the same terms, with `CCn1cc(C(=O)O)c(=O)c2cnc(N3CCN(C(=S)Nc4ccccc4C(=O)OC)CC3)nc21` [Compound 5, 2-(4-{[(2-methylesterphenyl)amino]carbonothioyl}-1-piperazinyl)-8-ethyl-5-oxo-5,8-dihydropyrido[2,3-d]pyrimidine-6-carboxylic acid] the figure was 51.2 ± 1.3%; with `CCn1cc(C(=O)O)c(=O)c2cnc(N3CCN(C(=S)Nc4ccc(S(=O)(=O)N5CCOCC5)cc4)CC3)nc21` [Compound 6, 2-(4-{[(4-morpholinosulfonylphenyl)amino]carbonothioyl}-1-piperazinyl)-8-ethyl-5-oxo-5,8-dihydropyrido[2,3-d]pyrimidine-6-carboxylic acid], 64.1 ± 2.8%.
On the same count and under the same terms, then `CCn1cc(C(=O)O)c(=O)c2cnc(N3CCN(C(=S)Nc4c(C)cc(C)cc4C)CC3)nc21` [Compound 8, 2-(4-{[(2,4,6-mesitylphenyl)amino]carbonothioyl}-1-piperazinyl)-8-ethyl-5-oxo-5,8-dihydropyrido[2,3-d]pyrimidine-6-carboxylic acid], with 53.5 ± 1.6%.
Still for that read-out and setting: with `CCn1cc(C(=O)O)c(=O)c2cnc(N3CCN(C(=S)Nc4ccc(-n5cccn5)cc4)CC3)nc21` [Compound 9, 2-(4-{[(4-pyrazolephenyl)amino]carbonothioyl}-1-piperazinyl)-8-ethyl-5-oxo-5,8-dihydropyrido[2,3-d]pyrimidine-6-carboxylic acid] the figure was 68.6 ± 1.1%.
Turning to `CCn1cc(C(=O)O)c(=O)c2cnc(N3CCN(C(=S)Nc4ccccc4-c4cccc5nsnc45)CC3)nc21` [Compound 10, 2-(4-{[(2-benzothiadiazolphenyl)amino]carbonothioyl}-1-piperazinyl)-8-ethyl-5-oxo-5,8-dihydropyrido[2,3-d]pyrimidine-6-carboxylic acid], the “% Response at 10 μM (FS-3)” value on ATX came to 63.2 ± 2.8%.
Turning to `CCn1cc(C(=O)O)c(=O)c2cnc(N3CCN(C(=S)Nc4ccccc4C(F)(F)F)CC3)nc21` [Compound 12, 2-(4-{[(2-trifluoromethylphenyl)amino]carbonothioyl}-1-piperazinyl)-8-ethyl-5-oxo-5,8-dihydropyrido[2,3-d]pyrimidine-6-carboxylic acid], at ATX, the “% Response at 10 μM (FS-3)” value stood at 100.8 ± 1.9%; the “single dose response comparison by aromatic substituent and position” value (shortened to “single dose response comparison”) was 100.8 ± 1.9.
Take `CCn1cc(C(=O)O)c(=O)c2cnc(N3CCN(C(=S)Nc4cccc(Cl)c4Cl)CC3)nc21` [Compound 15, 2-(4-{[(2,3-dichlorophenyl)amino]carbonothioyl}-1-piperazinyl)-8-ethyl-5-oxo-5,8-dihydropyrido[2,3-d]pyrimidine-6-carboxylic acid]: the “% Response at 10 μM (FS-3)” value at ATX is 72.3 ± 0.4%.
For `CCn1cc(C(=O)Oc2ccccc2)c(=O)c2cnc(N3CCN(C(=S)Nc4ccccc4)CC3)nc21` [Compound 16, 2-(4-{[(phenyl)amino]carbonothioyl}-1-piperazinyl)-8-ethyl-5-oxo-5,8-dihydropyrido[2,3-d]pyrimidine-6-carboxylic acid phenyl], the “% Response at 10 μM (FS-3)” value on ATX was 56.4 ± 1.0%.
`CCn1cc(C(=O)O)c(=O)c2cnc(N3CCN(C(=S)Nc4ccccc4Cl)CC3)nc21` [Compound 17, 2-(4-{[(2-chlorophenyl)amino]carbonothioyl}-1-piperazinyl)-8-ethyl-5-oxo-5,8-dihydropyrido[2,3-d]pyrimidine-6-carboxylic acid]: at ATX, the “% Response at 10 μM (FS-3)” value turned out to be 83.5 ± 8.2%; the “single dose response comparison” value was determined as 83.5 ± 8.2.
Turning to `CCn1cc(C(=O)O)c(=O)c2cnc(N3CCN(C(=S)Nc4cccc(OC)c4)CC3)nc21` [Compound 19, 2-(4-{[(3-methoxyphenyl)amino]carbonothioyl}-1-piperazinyl)-8-ethyl-5-oxo-5,8-dihydropyrido[2,3-d]pyrimidine-6-carboxylic acid], on human NPP6, the “effect on activity of NPP6” value is reported as “None of the compounds affected the activity”. Besides, the “effect on activity of NPP7” value on human NPP7 is recorded as “None of the compounds affected the activity”. On ATX, the “% Response at 10 μM (FS-3)” value turned out to be 40.9 ± 1.3%; the “single dose response comparison” value was 40.9 ± 1.3. In addition, on ATX (FS-3 substrate), the IC50 amounted to 17.7 ± 0.3 µM. In addition, on ATX (single dose 10 μM, % inhibition, read-out: inhibition of ATX-mediated hydrolysis of FS-3), the inhibition at 10 µM is at least 50%.
On to `CCn1cc(C(=O)O)c(=O)c2cnc(N3CCN(C(=S)Nc4ccccc4OC)CC3)nc21` [Compound 21, 2-(4-{[(2-methoxyphenyl)amino]carbonothioyl}-1-piperazinyl)-8-ethyl-5-oxo-5,8-dihydropyrido[2,3-d]pyrimidine-6-carboxylic acid], for which, on ATX, the “% Response at 10 μM (FS-3)” value is reported as 97.6 ± 1.8%; the “single dose response comparison” value is on record as 97.6 ± 1.8.
Regarding `CCn1cc(C(=O)O)c(=O)c2cnc(N3CCN(C(=S)Nc4ccc(OC)cc4)CC3)nc21` [Compound 24, 2-(4-{[(4-methoxyphenyl)amino]carbonothioyl}-1-piperazinyl)-8-ethyl-5-oxo-5,8-dihydropyrido[2,3-d]pyrimidine-6-carboxylic acid], at ATX, the “% Response at 10 μM (FS-3)” value amounted to 79.7 ± 0.9%; the “single dose response comparison” value was 79.7 ± 0.9.
On to `CCn1cc(C(=O)O)c(=O)c2cnc(N3CCN(C(=S)Nc4ccccc4I)CC3)nc21` [Compound 26, 2-(4-{[(2-iodophenyl)amino]carbonothioyl}-1-piperazinyl)-8-ethyl-5-oxo-5,8-dihydropyrido[2,3-d]pyrimidine-6-carboxylic acid], for which, at ATX, the “% Response at 10 μM (FS-3)” value was determined as 68.4 ± 1.3%; the “single dose response comparison” value turned out to be 68.4 ± 1.3.
Regarding `CCn1cc(C(=O)O)c(=O)c2cnc(N3CCN(C(=S)Nc4ccccc4F)CC3)nc21` [Compound 30, 2-(4-{[(2-fluorophenyl)amino]carbonothioyl}-1-piperazinyl)-8-ethyl-5-oxo-5,8-dihydropyrido[2,3-d]pyrimidine-6-carboxylic acid], at ATX, the “% Response at 10 μM (FS-3)” value is reported as 77.3 ± 1.6%; the “single dose response comparison” value turned out to be 77.3 ± 1.6.

As usually defined, the IC50 is the concentration needed to halve the response being measured. By inhibition is commonly meant the percentage by which the read-out fell short of the control.
